We go through 2 compounds from patent US9949956B2, “Compounds, compositions, and methods for preventing metastasis of cancer cells” (Aerpio Therapeutics, Inc., priority 2009, dated 2018).

Test [1] has as its system H460-GFP human tumor cells. In words: In vivo anti-metastasis study, surgical orthotopic implantation of H460-GFP tumor fragments on the lung. The arrangement: species or system NCr nu/nu male mice. Conditions: for Evidence of Metastasis (individual mouse): mice No. 1-10; for # mice with metastases: ten mice per group. Here is the method: A total of 50 NCr nu/nu male mice aged 5-6 weeks were selected for the following in vivo test. H460-GFP human tumor cells were grown subcutaneously in NCr nu/nu male mice after which the resulting tumors were harvested. Subsequent to harvesting, recipient NCr nu/nu mice of this study had tumor fragments transplanted by surgical orthotopic implantation (SOI). Each animal was anesthetized is isofurane and the surgical area was sterilized with iodine and alcohol. A transverse incision approximately 1.5 cm long was made in the left chest wall of the mice using a pair of surgical scissors. An intercostal incision was made between the third and the fourth costa and the left lung was exposed. Two pieces of H460-GFP tumor fragments were transplanted to the surface of the lung with 8-0 surgical nylon suture. […]. The lung was re-inflated by the intrathoracic puncture using 3 cc syringe with 25 G 11⁄2 needle to draw out the remaining air in the chest cavity. The chest wall was closed with 6-0 surgical silk sutures. All procedures of the operation described above were performed with a 7× magnification microscope (Olympus) under HEPA filtered laminar flow hoods. The treated mice were divided into five groups containing ten mice each. Group I (Control) received 100 μL the drug vehicle twice daily for 15 days. Group II received 15 mg/kg of taxol intravenously at days 6, 9, 12, and 15. […] Group IV received 10 mg/kg of taxol intravenously at days 6, 9, 12, and 15 and 15 mg/kg of the Test Compound twice per day from day 3 to day 15. Group V received 15 mg/kg of the Test Compound twice per day from day 3 to day 15. All animals were sacrificed on day 28. Each animal was checked twice a week for primary tumor and metastasis via GFP open imaging of the mediastinal lymph nodes. No metastasis was found on any other organs. Six mice from the control group died before the end of the study, but were evaluated for tumor and/or cellular metastasis.

In the next test the test system is B16 melanoma cells. Description: In vivo anticancer study, B16 melanoma. The arrangement: species or system C57BL/6 mice. How it is done:
The effectiveness of the disclosed compounds as a treatment for melanoma was studied. C57BL/6 mice (6-8 weeks-old, female, Taconic Farm) were inoculated with B16 melanoma cells (5×10^4 cells/site, s.c.). […] Tumor volumes were recorded. […] Tumor volumes were recorded.

Another test relates to Renca renal cancer cells. Description: In vivo anticancer study, renal cell carcinoma (Renca). The arrangement: species or system Balb/c mice. Particulars: FIG. 1 and FIG. 2. How it is done: The effectiveness of the disclosed compounds as a treatment against renal cell carcinoma was studied. Balb/c mice (6-8 weeks-old, female, Taconic Farm) were inoculated with Renca renal cancer cells (5×10^5 cells/site). […] Tumor volumes were recorded.

The test system of test [2] is MiaPaCa-2-RFP tumor fragments. Description: In vivo pancreatic cancer study, surgical orthotopic implantation of MiaPaCa-2-RFP tumor fragments. The arrangement: species or system NCr nu/nu males. Particulars: FIG. 9. An excerpt:
The effectiveness of the disclosed compounds as a treatment for pancreatic cancer was investigated. 60 NCr nu/nu males, 5-6 weeks old were transplanted by surgical orthotopic implantation (SOI) using MiaPaCa-2-RFP tumor fragments harvested from stock animals. The animals were anesthetized with isoflurane and the surgical area was sterilized using iodine and alcohol. An incision approximately 1.5 cm long was made in the left upper abdomen of the nude mouse using a pair of surgical scissors. […] The abdomen was closed with 6-0 surgical sutures (silk). All procedures of the operation described above were performed with a 7× magnification microscope (Olympus) under HEPA filtered laminar flow hoods. Dosing of the animals began three days following tumor implantation. The high dose of gemcitabine was 150 mg/kg. The low dose of gemcitabine was 100 mg/kg. […] was given at 20 mg/kg. […] The animals were divided into the following groups often animals each as depicted in Table XXII.

“And” between values parts separate entries of the source, which are not always exact repeats. Identical values can stand only once.

For `COC(=O)N[C@@H](Cc1ccccc1)C(=O)N[C@@H](Cc1ccc(NS(=O)(=O)O)cc1)c1csc(-c2cccs2)n1` [D91, 4-{(S)-2-[(S)-2-(Methoxycarbonylamino)-3-phenylpropanamido]-2-[2-(thiophen-2-yl)thiazol-4-yl]ethyl}phenylsulfamic acid], the “Evidence of Metastasis (individual mouse)” value in test [1] (Group V: D91 15 mg/kg twice per day, day 3 to 15, 15 mg/kg) was “Yes (2×) and No (8×)”. Besides, the “# mice with metastases” value in test [1] (Group V: D91 15 mg/kg twice per day, day 3 to 15) is 2. For the same compound, the “B16 melanoma tumor volume” value with B16 melanoma cells (40 mg/kg b.i.d. D91 alone versus vehicle control, FIG. 8) is given as “effectiveness”. Also, the tumor volume entry is “significantly reduced tumor volume as compared to high dose of IL-2” in the test with B16 melanoma cells (high dose of IL-2 (300,000 IU/mouse, bid, i.p.) in combination with high dose of D91 (40 mg/kg, bid, s.c.), compared to high dose IL-2 alone, FIG. 3); “significantly reduced tumor volume versus control” with B16 melanoma cells (low dose of IL-2 (100,000 IU/mouse, bid, i.p.) in combination with high dose of D91 (40 mg/kg, bid, s.c.) versus control, FIG. 6); “further reduced tumor volume” in the test on Renca renal cancer cells (combination of D91 (40 mg/kg, bid, s.c.) and IL-2 (100,000 IU/mouse, bid, i.p.)); “greater reduction in tumor volume” in test [2] (combination of low dose gemcitabine (100 mg/kg i.p.) and 20 mg/kg D91, compared with either alone). Moreover, the “reducing tumor volume, compared with IL-2” value in the test on Renca renal cancer cells (D91 40 mg/kg bid s.c. versus IL-2 100,000 IU/mouse bid i.p.) was “as effective as IL-2 in reducing tumor volume”. Besides, the renal tumor growth result with Renca renal cancer cells (D91 40 mg/kg, bid, s.c. alone) is reported as “significantly reduced renal tumor growth”. Further, the pancreatic tumor volume entry in test [2] (D91 20 mg/kg s.c. twice daily alone, day 28) was “significant reduction in pancreatic tumor volume”.
Consider `CC(=O)O[C@H]1C(=O)[C@@]2(C)[C@H]([C@H](OC(=O)c3ccccc3)[C@]3(O)C[C@H](OC(=O)[C@H](O)[C@@H](NC(=O)c4ccccc4)c4ccccc4)C(C)=C1C3(C)C)[C@]1(OC(C)=O)CO[C@@H]1C[C@@H]2O` [taxol, reference compound], for which, in test [1] (Group II: taxol 15 mg/kg i.v. at days 6, 9, 12, 15, GFP open imaging of mediastinal lymph nodes), the “Evidence of Metastasis (individual mouse)” value is “No (9×) and Yes”. For the same compound, in test [1] (Group II: taxol 15 mg/kg i.v. at days 6, 9, 12, 15), the “# mice with metastases” value is recorded as 1.
